In ChEMBL document CHEMBL1129399, “N-aryl-3,3,3-trifluoro-2-hydroxy-2-methylpropanamides: KATP potassium channel openers. Modifications on the western region” (J Med Chem, 1996):

Experiments:
Rattus norvegicus [1] = assay: in vivo activity was evaluated by measuring mean arterial pressure(MAP) after 5 hour.; assay type: functional, Artery
Rattus norvegicus [2] = assay: in vivo activity was evaluated by measuring interval between bladder contractions (IC) after 3 hour.; assay type: functional
Rattus norvegicus [3] = assay: in vivo activity was evaluated by measuring mean arterial pressure(MAP) after 1 hour.; assay type: functional, Artery
Rattus norvegicus [4] = assay: in vivo activity was evaluated by measuring interval between bladder contractions (IC) after 1 hour.; assay type: functional
Rattus norvegicus [5] = assay: in vivo activity was evaluated by measuring heart rate(HR) after 3 hour.; assay type: functional
Rattus norvegicus [6] = assay: in vivo activity was evaluated by measuring heart rate(HR) after 5 hour.; assay type: functional
Rattus norvegicus [7] = assay: in vivo activity was evaluated by measuring interval between bladder contractions (IC) after 5 hour.; assay type: functional
Rattus norvegicus [8] = assay: in vivo activity was evaluated by measuring mean arterial pressure(MAP) after 3 hour.; assay type: functional, Artery
Rattus norvegicus [9] = assay: in vivo activity was evaluated by measuring heart rate(HR) after 1 hour.; assay type: functional
Rattus norvegicus [10] = assay: in vivo activity was evaluated by measuring interval between bladder contractions (IC) after 1 hour.
Rattus norvegicus [11] = assay: In vivo activity was evaluated by measuring heart rate(HR) after 1 hour; assay type: functional
Rattus norvegicus [12] = assay: In vivo activity was evaluated by measuring mean arterial pressure(MAP) after 1 hour; assay type: functional, Artery
Rattus norvegicus [13] = assay: In vivo activity was evaluated by measuring interval between bladder contractions (IC) after 5 hours; assay type: functional
Rattus norvegicus [14] = assay: In vivo activity was evaluated by measuring heart rate(HR) after 3 hours; assay type: functional
Rattus norvegicus [15] = assay: In vivo activity was evaluated by measuring mean arterial pressure(MAP) after 3 hours; assay type: functional, Artery
Rattus norvegicus [16] = assay: In vivo activity was evaluated by measuring interval between bladder contractions (IC) after 1 hour; assay type: functional
Rattus norvegicus [17] = assay: In vivo activity was evaluated by measuring interval between bladder contractions (IC) after 3 hours; assay type: functional
Rattus norvegicus [18] = assay: In vivo activity was evaluated by measuring heart rate(HR) after 5 hours; assay type: functional
Rattus norvegicus [19] = assay: In vivo activity was evaluated by measuring mean arterial pressure(MAP) after 5 hours; assay type: functional, Artery
Rattus norvegicus [20] = assay: In vivo activity was evaluated by measuring mean arterial pressure (MAP) after 1 hour.; assay type: functional, Artery
Rattus norvegicus [21] = assay: In vivo activity was evaluated by measuring mean arterial pressure(MAP) after 3 hour.; assay type: functional, Artery
Rattus norvegicus [22] = assay: In vivo activity was evaluated by measuring heart rate(HR) after 1 hour.; assay type: functional
Rattus norvegicus [23] = assay: In vivo activity was evaluated by measuring heart rate(HR) after 5 hour.; assay type: functional
Rattus norvegicus [24] = assay: In vivo activity was evaluated by measuring interval between bladder contractions (IC) after 3 hour.; assay type: functional
Rattus norvegicus [25] = assay: In vivo activity was evaluated by measuring heart rate(HR) after 3 hour.; assay type: functional
Rattus norvegicus [26] = assay: In vivo activity was evaluated by measuring interval between bladder contractions (IC) after 1 hour.; assay type: functional
Rattus norvegicus [27] = assay: In vivo activity was evaluated by measuring interval between bladder contractions (IC) after 5 hour.; assay type: functional
Rattus norvegicus [28] = assay: In vivo activity was evaluated by measuring mean arterial pressure(MAP) after 5 hour.; assay type: functional, Artery
Rattus norvegicus [29] = assay: In vivo activity was evaluated by measuring mean arterial pressure(MAP) after 1 hour.; assay type: functional, Artery
Rattus norvegicus [30] = assay: In vivo activity was evaluated by measuring interval between bladder contractions (IC) after 1 hours; assay type: functional

## CC(O)(C(=O)Nc1ccc(S(=O)(=O)c2cccnc2)cc1)C(F)(F)F (stereo unspecified)
Rattus norvegicus [1]
  Delta MAP: -11%
Rattus norvegicus [2]
  Delta IC: 83%
Rattus norvegicus [3]
  Delta MAP: -16%
Rattus norvegicus [4]
  Delta IC: 64%
Rattus norvegicus [5]
  Delta HR: 3%
Rattus norvegicus [6]
  Delta HR: -2%
Rattus norvegicus [7]
  Delta IC: 125%
Rattus norvegicus [8]
  Delta MAP: -14%
Rattus norvegicus [9]
  Delta HR: 19%

## CN(c1ccccc1)S(=O)(=O)c1ccc(NC(=O)C(C)(O)C(F)(F)F)cc1 (stereo unspecified)
Rattus norvegicus [1]
  Delta MAP: -4%
Rattus norvegicus [2]
  Delta IC: 33%
Rattus norvegicus [3]
  Delta MAP: -1%
Rattus norvegicus [4]
  Delta IC: 30%
Rattus norvegicus [5]
  Delta HR: 4%
Rattus norvegicus [6]
  Delta HR: 1%
Rattus norvegicus [7]
  Delta IC: 56%
Rattus norvegicus [8]
  Delta MAP: -3%
Rattus norvegicus [9]
  Delta HR: -1%

## Cc1cc(C(=O)c2ccccc2)ccc1NC(=O)C(C)(O)C(F)(F)F (stereo unspecified)
Rattus norvegicus [1]
  Delta MAP: -4%
Rattus norvegicus [2]
  Delta IC: 50%
Rattus norvegicus [3]
  Delta MAP: -3%
Rattus norvegicus [5]
  Delta HR: -1%
Rattus norvegicus [6]
  Delta HR: 1%
Rattus norvegicus [7]
  Delta IC: 71%
Rattus norvegicus [8]
  Delta MAP: -4%
Rattus norvegicus [10]
  Delta IC: 26%
Rattus norvegicus [9]
  Delta HR: 0%

## CC(O)(C(=O)Nc1ccc(S(=O)(=O)c2ccccc2)cc1)C(F)(F)F (stereo unspecified)
Rattus norvegicus [11]
  Delta HR: 32%
Rattus norvegicus [12]
  Delta MAP: -25%
Rattus norvegicus [13]
  Delta IC: 97%
Rattus norvegicus [14]
  Delta HR: 27%
Rattus norvegicus [15]
  Delta MAP: -24%
Rattus norvegicus [16]
  Delta IC: 24%
Rattus norvegicus [17]
  Delta IC: 79%
Rattus norvegicus [18]
  Delta HR: -22%
Rattus norvegicus [19]
  Delta MAP: 23%

## CC(O)(C(=O)Nc1ccc(C(=O)c2cccc(F)c2)cc1)C(F)(F)F (stereo unspecified)
Rattus norvegicus [1]
  Delta MAP: 1%
Rattus norvegicus [2]
  Delta IC: 56%
Rattus norvegicus [3]
  Delta MAP: 4%
Rattus norvegicus [5]
  Delta HR: 4%
Rattus norvegicus [6]
  Delta HR: 6%
Rattus norvegicus [7]
  Delta IC: 61%
Rattus norvegicus [8]
  Delta MAP: 2%
Rattus norvegicus [10]
  Delta IC: 25%
Rattus norvegicus [9]
  Delta HR: 9%

## CC(O)(C(=O)Nc1ccc(S(=O)(=O)c2ccncc2)c(O)c1)C(F)(F)F (stereo unspecified)
Rattus norvegicus [1]
  Delta MAP: -4%
Rattus norvegicus [2]
  Delta IC: 42%
Rattus norvegicus [3]
  Delta MAP: 1%
Rattus norvegicus [4]
  Delta IC: 25%
Rattus norvegicus [5]
  Delta HR: 2%
Rattus norvegicus [6]
  Delta HR: 6%
Rattus norvegicus [7]
  Delta IC: 95%
Rattus norvegicus [8]
  Delta MAP: 1%
Rattus norvegicus [9]
  Delta HR: 2%

## CC(O)(C(=O)Nc1ccc(C(=O)c2ccccc2)cc1)C(F)(F)F (stereo unspecified)
Rattus norvegicus [20]
  Delta MAP: -1%
Rattus norvegicus [21]
  Delta MAP: 1%
Rattus norvegicus [22]
  Delta HR: 2%
Rattus norvegicus [23]
  Delta HR: -4%
Rattus norvegicus [24]
  Delta IC: 73%
Rattus norvegicus [25]
  Delta HR: -3%
Rattus norvegicus [26]
  Delta IC: 35%
Rattus norvegicus [27]
  Delta IC: 128%
Rattus norvegicus [28]
  Delta MAP: 2%

## CC(O)(C(=O)Nc1ccc(S(=O)(=O)c2ccncc2)cc1)C(F)(F)F (stereo unspecified)
Rattus norvegicus [1]
  Delta MAP: 1%
Rattus norvegicus [2]
  Delta IC: 76%
Rattus norvegicus [3]
  Delta MAP: 4%
Rattus norvegicus [4]
  Delta IC: 20%
Rattus norvegicus [5]
  Delta HR: 1%
Rattus norvegicus [6]
  Delta HR: 0%
Rattus norvegicus [7]
  Delta IC: 76%
Rattus norvegicus [8]
  Delta MAP: 5%
Rattus norvegicus [9]
  Delta HR: 5%

## CC1(C)Oc2ccc(C#N)cc2[C@@H](N2CCCC2=O)[C@@H]1O [CROMAKALIM]
Rattus norvegicus [21]
  Delta MAP: -14%
Rattus norvegicus [29]
  Delta MAP: -18%
Rattus norvegicus [22]
  Delta HR: 20%
Rattus norvegicus [24]
  Delta IC: 104%
Rattus norvegicus [25]
  Delta HR: 13%
Rattus norvegicus [30]
  Delta IC: 54%
Rattus norvegicus [18]
  Delta HR: 9%
Rattus norvegicus [27]
  Delta IC: 114%
Rattus norvegicus [28]
  Delta MAP: -12%
